Laboratory results published in patent US10604509B2, “Nrf2 regulators” (GlaxoSmithKline Intellectual Property Development Limited, priority 2015, dated 2020).
Where a name gives a salt, the structure may show the parent alone.

Test system: NQO1 specific enzyme activity in BEAS-2B cells
Assay: BEAS-2B NQO1 MTT assay
Type: cell-based
Settings: Homo sapiens, BEAS-2B, 48 h, BEAS-2B cells, 48 hours with compound, MTT readout; read-out: EC50 of NQO1 specific activity induction
Summary of the method: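 BEAS-2B cells treated with compound 48 h at 37° C, 5% CO2, then lysed; NQO1 activity in lysate measured kinetically by MTT cocktail at Absorbance 570 nm over 30 min. EC50 for induction from Delta OD/min versus log concentration, 3-parameter fit; Cell Titer Glo run on lysate aliquot.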

**Q.** For `CC[C@@H]1CN(Cc2cc(C(CC(=O)O)c3ccc4c(nnn4C)c3C)ccc2C)Cc2ccccc2O1` (stereo partly drawn) [Example 73, 3-(1,4-Diemthyl-1H-benzo[d][1,2,3]triazol-5-yl)-3-(3-(((R)-2-ethyl-2,3-dihydrobenzo[f][1,4]oxazepin-4(5H)-yl)methyl)-4-methylphenyl)propanonic acid, formic acid salt], which EC50 is on record?
**A.** Its EC50 is 100 to 1000 nM.

**Q.** How did the EC50 turn out when `COCC1CN(Cc2cc(C(CC(=O)O)c3ccc4c(nnn4C)c3C)ccc2C)Cc2ccccc2O1` (centres unmarked) [Example 74, 3-(1,4-Dimethyl-1H-benzo[d][1,2,3]triazol-5-yl)-3-(3-((2-(methoxymethyl)-2,3-dihydrobenzo[f][1,4]oxazepin-4(5H)-yl)methyl)-4-methylphenyl)propanoic acid, formic acid salt] was run?
**A.** The EC50 was 100 to 1000 nM.

**Q.** For `CC[C@@H]1CN(Cc2cc(C(CC(=O)O)c3ccc4c(nnn4C)c3C)ccc2C)Cc2ccc(F)cc2O1` (stereo partly drawn) [Example 75, 3-(1,4-Dimethyl-1H-benzo[d][1,2,3]triazol-5-yl)-3-(3-(((R)-2-ethyl-8-fluoro-2,3-dihydrobenzo[f][1,4]oxazepin-4(5H)-yl)methyl)-4-methylphenyl)propanoic Acid, Formic Acid Salt], which EC50 is on record?
**A.** Its EC50 is 100 to 1000 nM.

**Q.** With `CC[C@@H]1CN(Cc2cc(C(CC(=O)O)c3ccc4c(nnn4C)c3C)ccc2C)Cc2cccc(C)c2O1` (stereo partly drawn) [Example 76, Ammonium 3-(1,4-Dimethyl-1H-benzo[d][1,2,3]triazol-5-yl)-3-(3-(((R)-2-ethyl-9-methyl-2,3-dihydrobenzo[f][1,4]oxazepin-4(5H)-yl)methyl)-4-methylphenyl)propanate] as the compound, how does the EC50 read?
**A.** The EC50 was 100 to 1000 nM.

**Q.** `CC[C@@H]1CN(Cc2cc(C(CC(=O)O)c3ccc4c(nnn4C)c3C)ccc2C)Cc2cc(Cl)ccc2O1` (stereo partly drawn) [Example 77, Ammonium 3-(3-(((R)-7-Chloro-2-ethyl-2,3-dihydrobenzo[f][1,4]oxazepin-4(5H)-yl)methyl)-4-methylphenyl)-3-(1,4-dimethyl-1H-benzo[d][1,2,3]triazol-5-yl)propanate] was tested. Which EC50 did it give?
**A.** The EC50 was 1000 to 10000 nM.

**Q.** With `CC[C@@H]1CN(Cc2cc(C(CC(=O)O)c3ccc4c(nnn4C)c3C)ccc2C)Cc2cc(F)ccc2O1` (stereo partly drawn) [Example 78, 3-(1,4-Dimethyl-1H-benzo[d][1,2,3]triazol-5-yl)-3-(3-(((R)-2-ethyl-7-fluoro-2,3-dihydrobenzo[f][1,4]oxazepin-4(5H)-yl)methyl)-4-methylphenyl)propanoic acid, formic acid salt] as the compound, how does the EC50 read?
**A.** Its EC50 is 1000 to 10000 nM.

**Q.** With `CC[C@@H]1CN(Cc2cc(C(CC(=O)O)c3ccc4c(nnn4C)c3C)ccc2C)Cc2ncccc2O1` (stereo partly drawn) [Example 79, 3-(1,4-Dimethyl-1H-benzo[d][1,2,3]triazol-5-yl)-3-(3-(((R)-2-ethyl-2,3-dihydropyrido[2,3-f][1,4]oxazepin-4(5H)-yl)methyl)-4-methylphenyl)propanoic acid] as the compound, how does the EC50 read?
**A.** Its EC50 is 1000 to 10000 nM.

**Q.** Which EC50 does the source give for `CC[C@@H]1CN(Cc2cc(C(CC(=O)O)c3ccc4c(nnn4C)c3C)ccc2C)Cc2cccc(F)c2O1` (stereo partly drawn) [Example 80, 3-(1,4-Diemthyl-1H-benzo[d][1,2,3]triazol-5-yl)-3-(3-(((R)-2-ethyl-9-fluoro-2,3-dihydrobenzo[f][1,4]oxazepin-4(5H)-yl)methyl)-4-methylphenyl)propanoic acid, formic acid salt] here?
**A.** Its EC50 is 10 to 100 nM.

**Q.** How did the EC50 turn out when `CC[C@@H]1CN(Cc2cc(C(CC(=O)O)c3ccc4c(nnn4C)c3C)ccc2C)Cc2cc(C)ccc2O1` (stereo partly drawn) [Example 81, Ammonium 3-(1,4-dimethyl-1H-benzo[d][1,2,3]triazol-5-yl)-3-(3-(((R)-2-ethyl-7-methyl-2,3-dihydrobenzo[f][1,4]oxazepin-4(5H)-yl)methyl)-4-methylphenyl)propanate] was run?
**A.** The EC50 was 10 to 100 nM.

**Q.** Which EC50 does the source give for `CCC1CN(Cc2cc(C(CC(=O)O)c3ccc4c(nnn4C)c3C)ccc2C)Cc2ccc(Br)cc2O1` (centres unmarked) [Example 82, 3-(3-((8-Bromo-2-ethyl-2,3-dihydrobenzo[f][1,4]oxazepin-4(5H)-yl)methyl)-4-methylphenyl)-3-(1,4-dimethyl-1H-benzo[d]-[1,2,3]triazol-5-yl)propanoic acid] here?
**A.** The EC50 was 10 to 100 nM.

**Q.** For `CC[C@@H]1CN(Cc2cc(C(CC(=O)O)c3ccc4c(nnn4C)c3C)ccc2C)Cc2c(F)cccc2O1` (stereo partly drawn) [Example 83, 3-(1,4-Dimethyl-1H-benzo[d][1,2,3]triazol-5-yl)-3-(3-(((R)-2-ethyl-6-fluoro-2,3-dihydrobenzo[f][1,4]oxazepin-4(5H)-yl)methyl)-4-methylphenyl)propanoic acid], which EC50 is on record?
**A.** The EC50 was 100 to 1000 nM.

**Q.** Which EC50 does the source give for `CCC1CN(Cc2cc(C(CC(=O)O)c3ccc4c(nnn4C)c3C)ccc2C)Cc2ccc(OC)cc2O1` (centres unmarked) [Example 84, 3-(1,4-Dimethyl-1H-benzo[d][1,2,3]triazol-5-yl)-3-(3-((2-ethyl-8-methoxy-2,3-dihdyrobenzo[f][1,4]oxazepin-4(5H)-yl)methyl)-4-methylphenyl)propanoic acid, form acid salt] here?
**A.** Its EC50 is 100 to 1000 nM.

**Q.** How did the EC50 turn out when `CC[C@@H]1CN(Cc2cc(C(CC(=O)O)c3ccc4c(nnn4C)c3C)ccc2C)Cc2ccc(C)cc2O1` (stereo partly drawn) [Example 85, Ammoniumn 3-(1,4-Dimethyl-1H-benzo[d][1,2,3]triazol-5-yl)-3-(3-(((R)-2-ethyl-8-methyl-2,3-dihydrobenzo[f][1,4]oxazepin-4(5H)-yl)methyl)-4-methyphenyl)propanoate] was run?
**A.** Its EC50 is 100 to 1000 nM.

**Q.** `CC[C@@H]1CN(Cc2cc(C(CC(=O)O)c3ccc4c(nnn4C)c3C)ccc2C)Cc2cnccc2O1` (stereo partly drawn) [Example 86, 3-(1,4-Dimethyl-1H-benzo[d][1,2,3]triazol-5-yl)-3-(3-(((R)-2-ethyl-2,3-dihydropyrido[3,4-f][1,4]oxazepin-4(5H)-yl)methyl)-4-methylphenyl)propanoic acid] was tested. Which EC50 did it give?
**A.** Its EC50 is 100 to 1000 nM.

**Q.** For `CCC1CN(Cc2cc(C(CC(=O)O)c3ccc4c(nnn4C)c3C)ccc2C)Cc2cc(F)ccc2O1` (centres unmarked) [Example 87, 3-(1,4-Dimethyl-1H-benzo[d][1,2,3]triazol-5-yl)-3-(3-((2-ehtyl-7-fluoro-2,3-dihydrobenzo[f][1,4]oxazepin-4(5H)-yl)methyl)-4-methylphenyl)propanoic acid], which EC50 is on record?
**A.** Its EC50 is 10 to 100 nM.

**Q.** Which EC50 does the source give for `CCC1CN(Cc2cc(C(CC(=O)O)c3ccc4c(nnn4C)c3C)ccc2C)Cc2c(Cl)cccc2O1` (centres unmarked) [Example 88, 3-(3-((6-Chloro-2-ethyl-2,3-dihydrobenzo[f][1,4]oxazepin-4(5H)-yl)methyl)-4-methylphenyl)-3-(1,4-dimethyl-1H-benzo[d][1,2,3]triazol-5-yl)propanoic acid] here?
**A.** The EC50 was 100 to 1000 nM.

**Q.** How did the EC50 turn out when `Cc1ccc(C(CC(=O)O)c2ccc3c(nnn3C)c2C)cc1CN1Cc2ccccc2OC(C)(C)C1` (centres unmarked) [Example 89, 3-(1,4-Diemthyl-1H-benzo[d][1,2,3]triazol-5-yl)-3-(3-((2,2-dimethyl-2,3-dihydrobenzo[f][1,4]oxazepin-4(5H)-yl)methyl)-4-methylphenyl)propanoic acid] was run?
**A.** Its EC50 is 10 to 100 nM.

**Q.** For `CC[C@@H]1CN(Cc2cc(C(CC(=O)O)c3ccc4c(nnn4C)c3C)ccc2C)Cc2ccncc2O1` (stereo partly drawn) [Example 90, 3-(1,4-Dimethyl-1H-benzo[d][1,2,3]triazol-5-yl)-3-(3-(((R)-2-ethyl-2,3-dihydropyrido[4,3-f][1,4]oxazepin-4(5H)-yl)methyl)-4-methylphenyl)propanoic acid], which EC50 is on record?
**A.** Its EC50 is 10 to 100 nM.

**Q.** For `CC[C@@H]1CN(Cc2cc(C(CC(=O)O)c3ccc4c(c3)nnn4C)ccc2C)Cc2ccccc2O1` (stereo partly drawn) [Example 91, 3-(3-(((R)-2-Ethyl-2,3-dihydrobenzo[f][1,4]oxazepin-4(5H)-yl)methyl)-4-methylphenyl)-3-(1-methyl-1H-benzo[d][1,2,3]triazol-5-yl)propanoic acid], which EC50 is on record?
**A.** Its EC50 is 100 to 1000 nM.

**Q.** `Cc1ccc(C(CC(=O)O)c2ccc3c(nnn3C)c2C)cc1CN1CCCn2cncc2C1` (centres unmarked) [Example 92, 3-(3-((6,7-Dihydro-5H-imidazo[1,5-a][1,4]diazepin-8(9H)-yl)methyl)-4-methylphenyl)-3-(1,4-dimethyl-1H-benzo[d][1,2,3]triazol-5-yl)propanoic acid, Sodium salt] was tested. Which EC50 did it give?
**A.** The EC50 was 1000 to 10000 nM.

**Q.** Which EC50 does the source give for `Cc1ccc(C(CC(=O)O)c2ccc3c(nnn3C)c2C)cc1CN1Cc2ccc(Br)cc2O[C@@H](C)C1` (stereo partly drawn) [Example 93, 3-(3-(((S)-8-bromo-2-methyl-2,3-dihydrobenzo[f][1,4]oxazepin-4(5H)-yl)methyl)-4-methylphenyl)-3-(1,4-dimethyl-1H-benzo[d][1,2,3]triazol-5-yl)propanoic Acid, Formic Acid Salt] here?
**A.** The EC50 was 1 to 10 nM.

**Q.** `Cc1ccc(C(CC(=O)O)c2ccc3c(nnn3C)c2C)cc1CN1Cc2ccccc2O[C@H](C)C1` (stereo partly drawn) [Example 94, 3-(1,4-Dimethyl-1H-benzo[d][1,2,3]triazol-5-yl)-3-(4-methyl-3-(((R)-2-methyl-2,3-dihydrobenzo[f][1,4]oxazepin-4(5H)-yl)methyl)phenyl)propanoic Acid, Formic Acid Salt] was tested. Which EC50 did it give?
**A.** Its EC50 is 1 to 10 nM.

**Q.** For `Cc1c(C(CC(=O)O)c2ccc(F)c(CN3Cc4ccccc4O[C@@H](C)C3)c2)ccc2c1nnn2C` (stereo partly drawn) [Example 95, 3-(1,4-Dimethyl-1H-benzo[d][1,2,3]triazol-5-yl)-3-(4-fluoro-3-(((S)-2-methyl-2,3-dihydrobenzo[f][1,4]oxazepin-4(5H)-yl)methyl)phenyl)propanoic Acid, Formic Acid Salt], which EC50 is on record?
**A.** The EC50 was 100 to 1000 nM.

**Q.** Which EC50 does the source give for `Cc1ccc(C(CC(=O)O)c2ccc3c(nnn3C)c2C)cc1CN1Cc2cccnc2OC(C)(C)C1` (centres unmarked) [Example 96, 3-(1,4-Dimethyl-1H-benzo[d][1,2,3]triazol-5-yl)-3-(3-((2,2-dimethyl-2,3-dihydropyrido[3,2-f][1,4]oxazepin-4(5H)-yl)methyl)-4-methylphenyl)propanoic Acid] here?
**A.** The EC50 was 100 to 1000 nM.

**Q.** For `CCn1nnc2c(C)c(C(CC(=O)O)c3ccc(C)c(CN4Cc5ccccc5O[C@@H](C)C4)c3)ccc21` (stereo partly drawn) [Example 97, 3-(1-Ethyl-4-methyl-1H-benzo[d][1,2,3]triazol-5-yl)-3-(4-methyl-3-(((S)-2-methyl-2,3-dihydrobenzo[f][1,4]oxazepin-4(5H)-yl)methyl)phenyl)propanoic Acid, Formic Acid Salt], which EC50 is on record?
**A.** Its EC50 is 100 to 1000 nM.

**Q.** Which EC50 does the source give for `Cc1ccc(C(CC(=O)O)c2ccc3c(nnn3C)c2C)cc1CN1Cc2ccccc2O[C@@H](C)C1` (stereo partly drawn) [Example 98, 3-(1,4-Dimethyl-1H-benzo[d][1,2,3]triazol-5-yl)-3-(4-methyl-3-(((S)-2-methyl-2,3-dihydrobenzo[f][1,4]oxazepin-4(5H)-yl)methyl)phenyl)propanoic Acid, Formic Acid Salt] here?
**A.** Its EC50 is 100 to 1000 nM.
